Data set [1] has as its system tryptophan hydroxylase. The data set is described as follows: blockade of tryptophan hydroxylase activation. The data set is classed as biochemical. Particulars: activation by metabolic inhibitors such as guanidine and sodium cyanide.
The conditions of data set [2]: about 4 mg/kg/day (200-400 mg/day for human patients); cited from earlier work.
The conditions of data set [3]: 1 mg b.i.d. (about 30 μg/kg/day), FDA permitted dose levels; cited from earlier work.
For data set [4] the following is noted: rats, 200 mg/kg/day p.o., cited from earlier work.

Results on 2 compounds are retold here after patent US7514454B2, “Piperidin-2,6-dione pamoate salts and their use for the treatment of stress-related affective disorders” (Prestwick Pharmaceuticals, Inc., priority 2002, dated 2009).

Consider `COc1cccc(C2(CCCN(C)C)C(=O)NC(=O)CC2(C)C)c1` (centres unmarked) [AGN 2979 pamoate, 3(3-methoxyphenyl)-3-(3-dimethylaminopropyl)-4,4-dimethyl-piperidine-2,6-dione pamoate], for which the “blockade of tryptophan hydroxylase activation” value in data set [1] was “blocked”.

Consider `COc1cccc(C2(CCCN(C)C)C(=O)NC(=O)CC2(C)C)c1.Cl` (centres unmarked) [hydrochloride salt of AGN 2979], for which, in data set [2], the “effectiveness in the treatment of anxiety and depression” value is recorded as “effective”. The anxiolytic properties result in data set [3] is listed as “only marginally effective”. In data set [4] (1 year, not detected by routine transaminase determinations), the “hepatocyte changes revealed by post-mortem examination” value is “hepatocyte changes”. In data set [4] (over the 1-year period, immediate and continuing), the weight loss is given as 40%.
